Data on 13 compounds can be found in patent US11673889B2, “Substituted imidazo[4,5-c][1,8]naphthyridines as phosphodiesterase inhibitors” (Nanjing Zhengxiang Pharmaceuticals Co., Ltd., priority 2019, dated 2023).

Test [1] addresses T1, human soluble ENPP1 (Homo sapiens, UniProt P22413).
T1 construct: 20 ng of human soluble ENPP1
T1 sequence (P22413 103-925 limits assumed): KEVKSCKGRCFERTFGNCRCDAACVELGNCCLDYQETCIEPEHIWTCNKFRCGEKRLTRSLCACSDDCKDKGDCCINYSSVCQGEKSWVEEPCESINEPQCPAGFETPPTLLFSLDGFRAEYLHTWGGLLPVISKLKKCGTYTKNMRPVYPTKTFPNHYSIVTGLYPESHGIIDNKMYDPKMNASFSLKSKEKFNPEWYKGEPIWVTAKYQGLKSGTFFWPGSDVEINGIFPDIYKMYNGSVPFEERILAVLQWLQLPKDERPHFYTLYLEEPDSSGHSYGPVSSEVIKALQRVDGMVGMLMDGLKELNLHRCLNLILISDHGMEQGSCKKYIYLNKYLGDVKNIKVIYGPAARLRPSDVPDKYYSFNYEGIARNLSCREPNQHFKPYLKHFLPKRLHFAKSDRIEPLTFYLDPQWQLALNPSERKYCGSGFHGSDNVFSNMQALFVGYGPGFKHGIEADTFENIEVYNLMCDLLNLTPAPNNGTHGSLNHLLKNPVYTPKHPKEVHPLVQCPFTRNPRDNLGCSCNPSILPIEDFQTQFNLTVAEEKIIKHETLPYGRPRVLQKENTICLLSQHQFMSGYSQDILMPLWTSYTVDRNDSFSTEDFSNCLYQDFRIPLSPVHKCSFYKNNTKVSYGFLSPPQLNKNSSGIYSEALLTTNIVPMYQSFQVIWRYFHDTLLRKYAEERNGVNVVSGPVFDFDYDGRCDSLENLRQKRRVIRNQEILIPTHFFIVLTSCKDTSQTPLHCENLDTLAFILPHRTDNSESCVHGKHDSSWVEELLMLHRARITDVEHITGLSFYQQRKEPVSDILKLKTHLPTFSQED
The test can be described thus: ENPP1 activity assay using p-Nitrophenyl-5′-TMP as a substrate. It is filed as biochemical. On the procedure:
ENPP1 is a transmembrane glycoprotein that hydrolyzes nucleotides and nucleotide derivatives with the formation of nucleotide-5′-monophosphates. ENPP1 hydrolyzes artificial phosphoric acid ester thymidine 5′monophosphate p-nitrophenyl ester (TMP-pNP) to nucleotide-5′-monophosphate and p-nitrophenol, which is a chromogenic product.
Load into a well with 20 ng of human soluble ENPP1 in 50 μL and incubate at room temperature with 25 μL inhibitor solution (4× Final Concentration) for 30 mins. Then, add 25 μL 2 mM TMP solution (2× Final Concentration) into the well, Incubate at RT for 1 hour.
(§1) The percent inhibition at each compound is calculated as follows: % inhibition=(ODMAX−ODCOMPOUND)/(ODMAX−ODMIN)*100. (MAX: absence of ENPP1 inhibitors control, MIN: blank control.)
The IC50 values for percent inhibition versus compound concentration were determined by fitting the inhibition curves using a four-parameter variable slope model in GraphPad Prism® 8.

Test [2] has as its target T1, human soluble ENPP1. The test can be described thus: ENPP1 activity assay using p-Nitrophenyl-5′-AMP as a substrate. The test is classed as biochemical. The protocol:
AMP-pNP can be used as substrate of ENPP-1. Its hydrolysis products were nucleotide-5′-monophosphate and p-nitrophcnol, which is also a chromogenic product. The amount of p-nitrophenol product formed is measured using its absorbance at 405 nm, which is directly proportional to enzyme activity.
Load into a well with […] of human soluble ENPP1 in 50 μL and incubate at room temperature with 25 μL inhibitor solution (4× Final Concentration) for 30 mins prior adding 25 μL 3 mM AMP solution (2× Final Concentration) into the well, Incubate at RT for 1 hour. The amounts of released p-nitrophenolate were measured by reading OD value at 405 nm.
as §1
(§2) The IC50 values for percent inhibition versus compound concentration are determined by fitting the inhibition curves using a four-parameter variable slope model in GraphPad Prism® 8.

In the next test the target is T2, ENPP-1, MDA-MB-231 cells (Homo sapiens, UniProt P22413).
T2 sequence (P22413 1-925): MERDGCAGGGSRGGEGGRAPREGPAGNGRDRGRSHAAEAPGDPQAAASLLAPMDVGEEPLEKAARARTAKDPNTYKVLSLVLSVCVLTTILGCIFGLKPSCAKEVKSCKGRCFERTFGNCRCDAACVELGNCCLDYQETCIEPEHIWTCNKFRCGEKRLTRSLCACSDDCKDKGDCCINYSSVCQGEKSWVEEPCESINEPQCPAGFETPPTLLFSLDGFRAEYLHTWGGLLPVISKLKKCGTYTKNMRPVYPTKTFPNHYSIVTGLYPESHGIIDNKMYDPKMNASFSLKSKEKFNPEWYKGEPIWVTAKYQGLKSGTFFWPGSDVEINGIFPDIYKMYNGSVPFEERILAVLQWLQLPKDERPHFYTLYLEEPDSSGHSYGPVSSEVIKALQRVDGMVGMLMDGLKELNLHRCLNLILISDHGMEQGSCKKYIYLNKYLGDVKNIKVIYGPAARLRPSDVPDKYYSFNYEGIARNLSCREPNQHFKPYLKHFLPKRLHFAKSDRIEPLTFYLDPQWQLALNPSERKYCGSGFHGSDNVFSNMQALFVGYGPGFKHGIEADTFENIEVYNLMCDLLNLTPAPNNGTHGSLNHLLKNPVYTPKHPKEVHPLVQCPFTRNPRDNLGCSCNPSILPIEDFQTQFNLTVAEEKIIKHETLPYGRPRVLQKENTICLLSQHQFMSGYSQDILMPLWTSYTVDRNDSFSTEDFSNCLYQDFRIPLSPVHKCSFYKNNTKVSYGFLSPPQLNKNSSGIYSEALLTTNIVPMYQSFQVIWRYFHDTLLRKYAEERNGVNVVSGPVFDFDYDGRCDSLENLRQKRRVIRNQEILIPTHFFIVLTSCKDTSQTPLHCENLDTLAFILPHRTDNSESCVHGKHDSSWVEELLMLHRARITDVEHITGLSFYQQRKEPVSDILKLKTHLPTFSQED
The test is described as follows: cell-based. The note with it: for inhibition at 20 µM: MDA-MB-231, read-out: % Inhibition (at 20 μM). The protocol: ENPP-1 were mainly expressed on the surface of cell membrane where it hydrolytes 2′3′-cGAMP to generate 5′-GMP and 5′-AMP. ENPP-1 also has the ability to hydrolyzes artificial phosphoric acid ester TMP-pNP to nucleotide-5′-monophosphate and p-nitrophcnol there, which is a chromogenic product.
8 point of different concentrations of each inhibitor were prepared with the final assay concentrations starting at 20 μM. 3× series dilution by DMEM medium without FBS was applied. Prior to adding inhibitors, 75000 cells per well were incubated at 37° C., 5% CO2 in DMEM for 24 hours. After removing the supernatant medium, 50 μL inhibitor solution was added into each well with cultured cells and incubate at 37° C., 5% CO2 for 60 minutes.
as §2

Setting [3] is: substrate TMP-pNP, 20 ng human soluble ENPP1, Tris buffer pH 9.5, read-out: TMP-pNP (IC50).

Each structure is given as a SMILES string.

For the compound `COc1ccc2c(ncc3ncn([C@H](C)c4ccc(S(N)(=O)=O)cc4)c32)n1` [Compound 54, (R)-4-(1-(7-methoxy-1H-imidazo[4,5-c][1,8]naphthyridin-1-yl)ethyl)benzenesulfonamide], the IC50 came out at 0.53 nM against human soluble ENPP1 [1]; 1.8 nM against human soluble ENPP1 [2]; 900 nM at ENPP-1, MDA-MB-231 cells. For the same compound, the inhibition at 20 µM on ENPP-1, MDA-MB-231 cells worked out at 82%.

Consider `COc1ccc2c(ncc3ncn(Cc4ccc(S(N)(=O)=O)c(OC)c4)c32)n1` [Compound 64, 2-methoxy-4-((7-methoxy-1H-imidazo[4,5-c][1,8]naphthyridin-1-yl)methyl)benzenesulfonamide], for which the IC50 worked out at 2.8 nM against human soluble ENPP1 [1]; 8.9 nM at human soluble ENPP1 [2]; 4700 nM at ENPP-1, MDA-MB-231 cells. For the same compound, the inhibition at 20 µM on ENPP-1, MDA-MB-231 cells stood at 68%.

On to `COc1ccc2c(ncc3ncn(Cc4ccc(S(N)(=O)=O)c(OC(F)(F)F)c4)c32)n1` [Compound 66, 4-((7-methoxy-1H-imidazo[4,5-c][1,8]naphthyridin-1-yl)methyl)-2-(trifluoromethoxy)benzenesulfonamide], for which the IC50 worked out at 3 nM at human soluble ENPP1 [1]; 13 nM at human soluble ENPP1 [2]; 3400 nM on ENPP-1, MDA-MB-231 cells. For the same compound, at ENPP-1, MDA-MB-231 cells, the inhibition at 20 µM amounted to 71%.

As to `COc1ccc2c(ncc3ncn(Cc4ccc(S(N)(=O)=O)cc4C(F)(F)F)c32)n1` [Compound 67, 4-((7-methoxy-1H-imidazo[4,5-c][1,8]naphthyridin-1-yl)methyl)-3-(trifluoromethyl)benzenesulfonamide], the IC50 on human soluble ENPP1 [1] (setting [3]) was determined as 2.3 nM; against human soluble ENPP1 [2], 8.6 nM; on ENPP-1, MDA-MB-231 cells, 1300 nM. Also, the inhibition at 20 µM at ENPP-1, MDA-MB-231 cells was determined as 80%.

For the compound `COc1ccc2c(ncc3ncn(Cc4ccc(S(N)(=O)=O)cc4Br)c32)n1` [Compound 68, 3-bromo-4-((7-methoxy-1H-imidazo[4,5-c][1,8]naphthyridin-1-yl)methyl)benzenesulfonamide], the IC50 on human soluble ENPP1 [1] (setting [3]) worked out at 0.49 nM; at human soluble ENPP1 [2], 1.7 nM; against ENPP-1, MDA-MB-231 cells, 610 nM. Also, the inhibition at 20 µM at ENPP-1, MDA-MB-231 cells was determined as 86%.

For the compound `COc1ccc2c(ncc3ncn(Cc4ccc(S(N)(=O)=O)cc4C#N)c32)n1` [Compound 69, 3-cyano-4-((7-methoxy-1H-imidazo[4,5-c][1,8]naphthyridin-1-yl)methyl)benzenesulfonamide], the IC50 against human soluble ENPP1 [1] was 0.67 nM; against human soluble ENPP1 [2] it was 2.1 nM; on ENPP-1, MDA-MB-231 cells it was 510 nM. The inhibition at 20 µM at ENPP-1, MDA-MB-231 cells was found to be 79%.

On to `COc1ccc2c(ncc3nc(C4CCOCC4)n(Cc4ccc(S(N)(=O)=O)cn4)c32)n1` [Compound 75, 6-((7-methoxy-2-(tetrahydro-2H-pyran-4-yl)-1H-imidazo[4,5-c][1,8]naphthyridin-1-yl)methyl)pyridine-3-sulfonamide], for which the IC50 came out at 0.24 nM against human soluble ENPP1 [1]; 0.68 nM against human soluble ENPP1 [2]; 310 nM on ENPP-1, MDA-MB-231 cells. In addition, the inhibition at 20 µM on ENPP-1, MDA-MB-231 cells came out at 81%.

Regarding `COc1ccc2c(ncc3nc(C)n(Cc4ccc(S(=O)(=O)NC(C)=O)c(F)c4)c32)n1` [Compound 76, N-((2-fluoro-4-((7-methoxy-2-methyl-1H-imidazo[4,5-c][1,8]naphthyridin-1-yl)methyl)phenyl)sulfonyl)acetamide], the IC50 at human soluble ENPP1 [1] (setting [3]) was determined as 13 nM; against human soluble ENPP1 [2], 26 nM; on ENPP-1, MDA-MB-231 cells it was 6900 nM. Besides, the inhibition at 20 µM on ENPP-1, MDA-MB-231 cells was 51%.

Turning to `COc1ccc2c(ncc3nc(C)n(Cc4ccc(S(=O)(=O)NC(C)=O)cn4)c32)n1` [Compound 77, N-((6-((7-methoxy-2-methyl-1H-imidazo[4,5-c][1,8]naphthyridin-1-yl)methyl)pyridin-3-yl)sulfonyl)acetamide], the IC50 at human soluble ENPP1 [1] stood at 8.6 nM; against human soluble ENPP1 [2] it was 15 nM; at ENPP-1, MDA-MB-231 cells, 4800 nM. For the same compound, the inhibition at 20 µM at ENPP-1, MDA-MB-231 cells worked out at 65%.

Turning to `COCc1nc2cnc3nc(OC)ccc3c2n1Cc1ccc(S(N)(=O)=O)c(F)c1` [Compound 79, 2-fluoro-4-((7-methoxy-2-(methoxymethyl)-1H-imidazo[4,5-c][1,8]naphthyridin-1-yl)methyl)benzenesulfonamide], the IC50 was 2.1 nM against human soluble ENPP1 [1]; 9.2 nM on human soluble ENPP1 [2]; 1900 nM on ENPP-1, MDA-MB-231 cells. Moreover, the inhibition at 20 µM at ENPP-1, MDA-MB-231 cells was 74%.

Turning to `COc1ccc2c(ncc3nc(CS(C)(=O)=O)n(Cc4ccc(S(N)(=O)=O)c(F)c4)c32)n1` [Compound 81, 2-fluoro-4-((7-methoxy-2-((methylsulfonyl)methyl)-1H-imidazo[4,5-c][1,8]naphthyridin-1-yl)methyl)benzenesulfonamide], the IC50 at human soluble ENPP1 [1] is 6.9 nM; against human soluble ENPP1 [2], 23 nM; against ENPP-1, MDA-MB-231 cells, 4900 nM. Besides, the inhibition at 20 µM at ENPP-1, MDA-MB-231 cells is 63%.

For `COC(=O)Cc1nc2cnc3nc(OC)ccc3c2n1Cc1ccc(S(N)(=O)=O)c(F)c1` [Compound 83, methyl 2-(1-(3-fluoro-4-sulfamoylbenzyl)-7-methoxy-1H-imidazo[4,5-c][1,8]naphthyridin-2-yl)acetate], the IC50 at human soluble ENPP1 [1] was 3.2 nM; against human soluble ENPP1 [2] it was 7.7 nM; against ENPP-1, MDA-MB-231 cells, 1200 nM. Further, the inhibition at 20 µM at ENPP-1, MDA-MB-231 cells turned out to be 83%.

Consider `COc1ccc2c(ncc3nc(CC(N)=O)n(Cc4ccc(S(N)(=O)=O)c(F)c4)c32)n1` [Compound 84, 2-(1-(3-fluoro-4-sulfamoylbenzyl)-7-methoxy-1H-imidazo[4,5-c][1,8]naphthyridin-2-yl)acetamide], for which the IC50 turned out to be 3.5 nM at human soluble ENPP1 [1] (setting [3]); 8.4 nM against human soluble ENPP1 [2]; 2500 nM at ENPP-1, MDA-MB-231 cells. Besides, the inhibition at 20 µM at ENPP-1, MDA-MB-231 cells worked out at 76%.
